Reference: patent US11564913B2, “Compositions and methods for treating cancer” (Children's Hospital Medical Center, priority 2019, dated 2023)

Test system: murine p190-BCR-ABL leukemic progenitor cells (EGFP+/B220dim)
Experiment: Cell cycle analysis, BrdU incorporation and flow cytometry
Assay type: cell-based
Conditions: for percentage of cells in the G2+M phases: 20 h (SD, N=3)
Experimental: FIG. 13: IODVA1 decreases Rac activation and signaling. (A) Ba/F3 cells expressing p190-BCR-ABL1 were treated with IODVA1 (3 μM) as indicated and levels of active Rac (Rac-GTP) were assessed by pull-down using GST-PAK-GBD, followed by immunoblotting (upper panel) and densitometric quantification (lower panel). (B) Flow-cytometry analysis of pJNK, pS6, p4EBP, pPAK1, and pAKT of Ba/F3 cells expressing Mieg3 empty vector (light and dark blue) or p190-BCR-ABL1 (light and dark salmon) and treated with vehicle control or IODVA1 (3 μM) for 30 min. (C) Representative histogram data of the cell cycle analysis of Ba/F3 cells expressing p190-BCR-ABL and treated with vehicle control or IODVA1 (1, 3, and 10 μM) for 20 h. (D) Quantification of the average number of colonies of bone marrow wild-type (black) and Rac1^Δ/Δ+Rac2^−/− (red) p190-BCR-ABL1 leukemic cells treated with vehicle control or IODVA1 (IO1, 1 μM). ns—not significant, * p<0.05, ** p<0.01, *** p<0.001. (E) As in FIG. 13A, but cells were incubated for a fixed amount of time (1 h) at the indicated IODVA1 concentrations. (F) Ba/F3 cells expressing p190-BCR-ABL1 were treated with IODVA1 (3 μM) and lysed at the indicated times. Cell lysates were separated on SDS-PAGE and immunoblotted for pPAK(T423), pBAD(S136), and BAD. (G) Ba/F3 cells expressing p190-BCR-ABL1 were treated with IODVA1 (3 μM) and levels of active Cdc42 (Cdc42-GTP) and Rho (Rho-GTP) were assessed by pull-down at the indicated times using GST-PAK-GBD and GST-Rhotekin respectively, followed by immunoblotting (left panel) and densitometric quantification (right panel). (H) Morphology of GFP^+ leukemic colonies (left panel). Western blot analysis of Rac1 and Rac2 protein expression in Rac1^Δ/Δ+Rac2^−/− cells post poly-I:C injections (right panel). (I) Intrinsic (blue line) and p50GAP-stimulated GTP-hydrolysis reaction in the presence (red line) or absence (black line) of IODVA1. (J) Sedimentation assay of liposomal Rac1-GDP in the presence of IODVA1 (2 μM). Rac1 was visualized by immunoblotting from pellet (p) and soluble (s) fractions. (K) Stopped-flow measurement of GDI (10 μM) interaction with fluorescently-labelled Rac1 in the absence (black line) or presence (orange line) of IODVA1.
To further test this hypothesis, we analyzed the cell cycle of murine p190-BCR-ABL leukemic progenitor cells (EGFP^+/B220^dim) incubated with vehicle control or IODVA1 (1-10 μM) for 20 h, followed by in vitro BrdU incorporation and flow cytometry analysis (FIG. 13C). […] It increased the percentage of cells in the G2+M phases from 7±1% (SD, N=3) in the presence of vehicle control to 22±6.6, 32±3, and 36±7% (SD, N=3) at 1, 3, and 10 μM, respectively. At 1 μM, it reduced the S-phase 8-fold (p=0.0002) and increased apoptosis by at least 5.3-times (p=0.007). Therefore, IODVA1 induces a G2/M arrest.
Cell cycle was analyzed by using in vitro incorporation of 5-Bromo-2-deoxyuridine using Brdu Flow kit (BD Pharmingen, Cat #552598). Briefly, mice leukemic progenitors were incubated with […] BrdU solution for 45 minutes, cells were further fixed and permeabilized. DNAse treatment was done according to the instructions and stained with anti BrdU and apoptosis was analyzed by 7-AAD staining through flow cytometry analysis.

OC1(c2ccccn2)N=C(Nc2nc3ccccc3[nH]2)N=C1c1ccccn1 (stereo not drawn) [IODVA1, (Z)-2-((1H-benzo[d]imidazol-2-yl)imino)-4,5-di(pyridin-2-yl)-2,5-dihydro-1H-imidazol-5-ol]
percentage of cells in the G2+M phases (1 μM, vehicle 7±1%): 22±6.6% | reduction of the S-phase (1 μM, p=0.0002): 8 fold | increase in apoptosis (1 μM, p=0.007): at least 5.3 times | percentage of cells in the G2+M phases (3 μM): 32±3% | percentage of cells in the G2+M phases (10 μM): 36±7% | G0+G1 phase (1-10 μM, 20 h): did not affect
